{"source": "patent US20070122395A1", "about": "“Genetic and pharmacological regulation of antidepressant-sensitive biogenic amine transporters through PKG/p38 map kinase” (Vanderbilt University, priority 2005, published 2007)", "key": {"[1]": {"system": "rat SERT expressed by RBL-2H3 cells", "assay": "[3H]5-HT transport assay in RBL-2H3 cells", "assay_type": "cell-based"}, "human NET": {"system": "human NET", "assay": "monoamine uptake assay in transfected CHO cells", "assay_type": "cell-based", "conditions": "SB203580 preincubation 15 min", "description": "Cell Culture and Transfection. […] CHO cells (ATCC, Manassas, Va.) were maintained at 37° C. in Dulbecco's MEM containing 10% fetal bovine serum, 1% L-Glu, 100 IU/ml penicillin, and 100 μg/ml streptomycin. For comparison of the response of monoamine transporters to p38 MAPK activation, CHO cells were transfected with cDNAs for hSERT, hDAT, or hNET (100 ng/well for a 24-well plate). Transfections of CHO cells were performed using TransIT-LT1 Transfection Reagent (Mirus, Madison, Wis.) according to the manufacturer's protocol (0.3 μl/well). hSERT, hDAT, or hNET cDNAs were preincubated with the reagent at ambient temperature for 30 min before being added to plated CHO cells. Cells were cultured for 24 h after transfection. The transfection mixture was removed just prior to assay.\nCHO cells were plated at 20,000 cells/well 16-24 h before transfection, and the uptake assay was performed 24 h following the transfection. […] Medium was removed by aspiration, and cells were washed once with Krebs-Ringer HEPES (KRH) buffer containing 130 mM NaCl, 1.3 mM KCl, 2.2 mM CaCl2, 1.2 mM MgSO4, 1.2 mM KH2PO4, 1.8 g/liter glucose, 10 mM HEPES, pH 7.4. […] Cells were solubilized with 0.5 ml of Microscint 20 (PerkinElmer Life Sciences), and tritium-labeled monoamine accumulation was quantitated using a TopCount plate scintillation counter (PerkinElmer Life Sciences)."}, "SERT in RBL-2H3 cells": {"target": "T1, SERT in RBL-2H3 cells (Rattus norvegicus, UniProt P31652)", "T1 construct": "As with rat SERT expressed by RBL-2H3 cells; host or cells: RBL-2H3 cells (intact cells, 4° C.)", "T1 sequence (P31652 whole entry)": "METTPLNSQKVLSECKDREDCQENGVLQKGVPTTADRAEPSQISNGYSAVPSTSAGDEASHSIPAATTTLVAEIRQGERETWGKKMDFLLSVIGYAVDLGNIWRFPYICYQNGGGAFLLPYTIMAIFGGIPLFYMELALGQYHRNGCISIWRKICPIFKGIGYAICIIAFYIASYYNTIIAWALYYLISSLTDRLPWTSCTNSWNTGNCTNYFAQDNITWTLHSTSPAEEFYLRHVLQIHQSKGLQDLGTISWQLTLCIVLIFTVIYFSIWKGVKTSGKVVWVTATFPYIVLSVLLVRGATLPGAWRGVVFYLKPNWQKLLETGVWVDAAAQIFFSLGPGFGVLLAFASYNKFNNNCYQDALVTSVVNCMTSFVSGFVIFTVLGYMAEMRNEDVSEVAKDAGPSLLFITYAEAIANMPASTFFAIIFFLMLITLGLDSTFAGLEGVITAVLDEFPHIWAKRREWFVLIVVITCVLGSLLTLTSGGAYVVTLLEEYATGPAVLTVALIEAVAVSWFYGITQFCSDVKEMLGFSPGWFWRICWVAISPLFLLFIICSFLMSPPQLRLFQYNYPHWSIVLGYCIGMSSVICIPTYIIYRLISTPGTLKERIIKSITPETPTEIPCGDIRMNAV", "assay": "[125I]RTI-55 binding to intact RBL-2H3 cells", "assay_type": "cell-based", "from_the_text": "Binding was terminated by two rapid washes with ice-cold PBS/CM."}, "hSERT variants": {"system": "hSERT variants", "assay": "5-HT transport regulation by phorbol ester in transfected HeLa cells, all variants", "assay_type": "cell-based, human", "conditions": "each hSERT variant; slightly greater for Thr4Ala, Lys605Asn, Pro621Ser", "description": "(§1) Transfection and Transport Studies. HeLa cells, maintained at 37° C. in a 5% CO2 humidified incubator, were grown in complete medium (Dulbecco's Modified Eagle's Medium (DMEM, Invitrogen), 10% fetal bovine serum, 2 mM L-glutamine, 100 units/ml penicillin, and 100 μg/ml streptomycin).\n(§2) Transport, Binding, Biotinylation and Phosphorylation Studies. […] To establish levels and biosynthetic progression of hSERT protein produced from mutant cDNAs, HeLa cells were plated in 6-well dishes at 500,000 cells per well and transfected 12 h later. Twenty four hours after transfection, whole cell detergent extracts were blotted for hSERT (mAb Technologies, Inc., 1:1000) using enhanced chemiluminescence (ECL, Amersham) detection."}, "hSERT": {"target": "T2, hSERT (Homo sapiens, UniProt P31645)", "T2 construct": "The full-length cDNA encoding hSERT in the mammalian expression vector pcDNA3.1; expressed in transfected cells; host or cells: HeLa", "T2 sequence (P31645 whole entry)": "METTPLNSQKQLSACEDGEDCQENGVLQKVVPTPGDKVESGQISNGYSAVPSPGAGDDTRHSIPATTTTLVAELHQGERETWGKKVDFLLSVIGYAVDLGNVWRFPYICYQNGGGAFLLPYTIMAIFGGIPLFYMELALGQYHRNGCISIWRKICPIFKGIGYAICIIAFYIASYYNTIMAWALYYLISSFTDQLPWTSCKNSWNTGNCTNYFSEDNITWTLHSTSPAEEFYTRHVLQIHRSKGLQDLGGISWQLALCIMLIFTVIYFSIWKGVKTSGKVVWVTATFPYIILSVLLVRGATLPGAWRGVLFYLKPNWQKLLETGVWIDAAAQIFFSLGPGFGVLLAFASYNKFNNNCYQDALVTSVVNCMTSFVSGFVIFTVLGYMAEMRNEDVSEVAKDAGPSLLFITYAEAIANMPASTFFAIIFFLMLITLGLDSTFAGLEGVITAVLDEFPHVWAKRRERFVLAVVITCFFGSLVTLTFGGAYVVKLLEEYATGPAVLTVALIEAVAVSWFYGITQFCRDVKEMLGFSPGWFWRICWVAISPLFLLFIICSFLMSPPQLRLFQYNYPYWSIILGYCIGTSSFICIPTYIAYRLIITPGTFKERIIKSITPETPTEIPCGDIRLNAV", "assay": "[3H]5-HT transport (SERT uptake) assay in transfected HeLa cells", "assay_type": "cell-based", "description": "as §1, §2"}, "[2]": {"target": "T3, native SERT in RN46A cells (Rattus norvegicus, UniProt P31652)", "T3 construct": "derived from rat E13 raphenucleus, that expresses native SERT; endogenous in cells; host or cells: RN46A cells", "T3 sequence (P31652 whole entry)": "as the sequence (P31652 whole entry) above", "assay": "[3H]5-HT transport assay in RN46A cells", "assay_type": "cell-based", "conditions": "DT-2 1.0 μm"}, "NCCc1c[nH]c2ccc(O)cc12": {"system": "T4, NCCc1c[nH]c2ccc(O)cc12", "T4 construct": "The full-length cDNA encoding hSERT in the mammalian expression vector pcDNA3.1; expressed in transfected cells; host or cells: HeLa", "assay": "cells, lysate or membranes", "assay_type": "cell-based, human", "conditions": "other: saturation kinetics of 5-HT transport, hSERT; pH 7.4; 37.0 °C"}}, "note": "“And” between values parts separate entries of the source, which are not always exact repeats. Equal values may be shown once. Read-outs that look alike come from different tables or passages of the source.", "data": [{"compound": "CCc1nc(-c2ccc(OC)cc2)[nH]c1-c1ccncc1", "note": "[SB202474]", "values": [{"measurement": "blockade of anisomycin-stimulated 5-HT uptake / SERT activity", "setting": "[1]", "result": "lacked antagonistic activity"}]}, {"compound": "C[S+]([O-])c1ccc(-c2nc(-c3ccc(F)cc3)c(-c3ccncc3)[nH]2)cc1", "note": "(stereo not shown) [SB203580]", "values": [{"measurement": "blockade of anisomycin stimulation of NET", "setting": "human NET", "result": "blocking stimulation back to basal levels"}]}, {"compound": "COC[C@@H]([C@H](O)[C@H](O)C(=O)NCC[C@H](C)c1nc(/C=C/C[C@@H]2O[C@]3(C[C@@H](O)[C@@H]2C)O[C@H]([C@H](C[C@H](O)[C@H](C)[C@H](O)[C@H](C)/C=C(C)/C(C)=C/C=C/C(C)=C\\C#N)OC)[C@H](OP(=O)(O)O)C3(C)C)co1)N(C)C", "note": "[calyculin A]", "values": [{"measurement": "basal 5-HT uptake", "setting": "[1]; calyculin A 20 nM", "result": "fails to diminish"}, {"measurement": "blockade of anisomycin stimulation of SERT", "setting": "[1]; calyculin A 20 nM, 15 min preincubation", "result": "completely blocks"}, {"measurement": "5-HT uptake at higher concentrations", "setting": "[1]; calyculin A 100 nM, fostriecin higher concentrations", "result": "inhibits both basal and anisomycin-stimulated 5-HT uptake"}]}, {"compound": "COc1cc(/C=C/C(=O)CC(=O)/C=C/c2ccc(O)c(OC)c2)ccc1O", "note": "[curcumin]", "values": [{"measurement": "blockade of anisomycin-stimulated 5-HT uptake / SERT activity", "setting": "[1]", "result": "lacked antagonistic activity"}]}, {"compound": "C[C@@](O)(/C=C/[C@H]1CC=CC(=O)O1)[C@@H](C[C@@H](O)\\C=C/C=C\\C=C\\CO)OP(=O)(O)O", "note": "[fostriecin]", "values": [{"measurement": "SERT surface density (5-HT-displaceable [125I]RTI-55 binding)", "setting": "SERT in RBL-2H3 cells; anisomycin 1 μm, fostriecin 5 nM, NECA 1 μm, 10 min", "result": "did not impact the binding"}, {"measurement": "blockade of NECA-induced enhancement of SERT surface density", "setting": "SERT in RBL-2H3 cells; concentration that completely blocks anisomycin stimulation", "result": "fails to block"}, {"measurement": "5-HT uptake at higher concentrations", "setting": "[1]", "result": "inhibit basal 5-HT uptake"}, {"measurement": "blockade of anisomycin-stimulated 5-HT uptake / SERT activity", "setting": "[1]", "result": "completely blocks"}]}, {"compound": "CCCCCCCCCCCCCC(=O)O[C@@H]1[C@@H](C)[C@@]2(O)[C@@H](C=C(CO)C[C@]3(O)C(=O)C(C)=C[C@@H]23)[C@@H]2C(C)(C)[C@]12OC(C)=O", "note": "[β-PMA]", "values": [{"measurement": "downregulation of 5-HT transport following β-PMA, relative to hSERT", "setting": "hSERT variants", "result": "equal to or slightly greater"}, {"measurement": "downregulation of 5-HT transport activity", "setting": "hSERT", "result": "~40", "unit": "%"}]}, {"compound": "YGRKKRRQRRRPP-LRK5H-amide [DT-2]", "values": [{"measurement": "blockade of NECA-induced 5-HT uptake", "setting": "[1]; ODQ 10 μm, H8 0.1 μm, DT-2 1.0 μm, NECA 1 μm", "result": "abolish"}, {"measurement": "blockade of 8-Br-cGMP stimulation of SERT", "setting": "[1]; data not shown", "result": "blocked"}, {"measurement": "blockade of anisomycin-stimulated 5-HT uptake / SERT activity", "setting": "[1]; pretreatment, then anisomycin 1 μm 10 min, SB compounds, curcumin, PD98059, ODQ 10 μm, H8 0.1 μm, DT-2 1.0 μm, fostriecin 5 nM, MTSET 10 mM, siRNA 100 nM 48 h", "result": "failed to attenuate"}, {"measurement": "sensitivity of 8-bromo-cGMP-induced 5-HT transport to PKG antagonist", "setting": "[2]", "result": "sensitive"}, {"measurement": "blockade of anisomycin-stimulated 5-HT uptake", "setting": "[2]; RN46A, SB203580, ODQ 10 μm, H8 0.1 μm", "result": "failed to attenuate"}]}, {"compound": "bisindolylmaleimide [BIM]", "values": [{"measurement": "blockade of β-PMA downregulation", "setting": "hSERT; BIM 1 μM", "result": "blocked"}]}, {"compound": "hSERT (Homo sapiens)", "values": [{"measurement": "Km", "setting": "NCCc1c[nH]c2ccc(O)cc12", "result": "1.00+/−0.47 μM and 1.00+0.17 μM"}]}]}
